≈ marks a conversion by molar mass, not a printed value.
Columns and labels:
Type in all cases: cell-based
[1] = system: Staphylococcus epidermidis Se19 (Clinical Isolate, Jan Ingemar Falk); test: Minimum inhibitory concentration (MIC), visible growth
Experimental: (§1) • 1. Using a sterile inoculating loop, transfer bacteria/Candida albicans from frozen stock culture and streak them on a fresh LA plate. • 2. Incubate the plate at 37° C. overnight (o/n) (18-24 h).
(§2) • 1. Prepare bacterial culture by adding 20 ml Mueller Hinton broth (*) to a 250-ml Erlenmeyer flask with sidearm. • 2. Using a sterile inoculating loop, pick approximately 10 colonies from the o/n bacterial culture and transfer bacteria to the flask. • 3. Incubate the E-flask with bacteria on a rotating shaker at 37° C. until OD590=0.40. This OD should equal an approximate bacterial count of 1×10^8 cfu/ml (**) • This is measured using a colorimeter (or spectrophotometer). Set reference and press R (=reference) first, then measure the bacterial culture by pressing T (=test). • 4. At OD590 0.40, serially dilute the bacterial suspension 1:10 000 in Mueller Hinton broth to obtain a bacterial target concentration of 1×10^4 cfu/ml. Determine the initial inoculation by serially diluting 0.1 ml in 0.9 ml blanks of sterile PBS and plating 0.1 ml aliquots to LA plates, preferably. • 5. Different concentrations of the tested compound are prepared in 0.6-0.8 ml of the final dilution of bacterial suspension and placed in 2-ml test tubes. • 6. Incubate test tubes in an orbital shaker incubator at 37° C. for 24 h.
(§3) • 7. Analyze visible growth, i.e. “Foggy” or “Clear”. MIC is being defined as the interval between the highest “Foggy” and the lowest “Clear” concentration of the compound.
(§4) Different concentrations of PDEA (Example 1) in Mueller Hinton medium were prepared. Bacteria were inoculated to a concentration of 20 000 CFU/ml and incubated at 37° C. for 24 hours. Minimum inhibitory concentrations (MICs) were determined by analyzing visible growth, i.e., readouts were “Clear” and “Foggy”.
(§5) Different concentrations of the quaternary ammonium PDEA (Example 2) in Mueller Hinton medium were prepared. Bacteria were inoculated to a concentration of 20 000 CFU/ml and incubated at 37° C. for 24 hours. Minimum inhibitory concentrations (MICs) were determined by analyzing visible growth, i.e., readouts were “Clear” and “Foggy”.
(§6) Different concentrations of this compound in Mueller Hinton medium were prepared. Bacteria were inoculated to a concentration of 20 000 CFU/ml and incubated at 37° C. for 24 hours. Minimum inhibitory concentrations (MICs) were determined by analyzing visible growth, i.e., readouts were “Clear” and “Foggy”.
(§7) Different concentrations of this compound were prepared in Mueller Hinton broth. Bacteria were inoculated to a concentration of 20 000 CFU/ml and incubated at 37° C. for 24 hours. Minimum inhibitory concentrations (MICs) were determined by analyzing visible growth, i.e., readouts were “Clear” and “Foggy”.

[2] = system: Enterococcus faecium #11 (KI, Clinical Isolate); test: as above
Experimental: as §1, §2, §3, §4, §5, §6, §7

[3] = system: Klebsiella pneumoniae AO15200; test: as above
Experimental: as §1, §2, §3, §4, §5, §6, §7

Escherichia coli CFT073 = test: as above
Experimental: as §1, §2, §3, §4, §5, §6, §7

[4] = system: Pseudomonas aeruginosa PA02; test: as above
Experimental: as §1, §2, §3, §4, §5, §6, §7

[5] = system: Staphylococcus aureus B5381; test: as above
Experimental: as §1, §2, §3, §4, §5, §6, §7

[6] = system: Enterococcus faecalis #28 (KI, Clinical Isolate); test: as above
Experimental: as §1, §2, §3, §4, §5, §6, §7

Candida albicans = test: Minimum inhibitory concentration (MIC), visible growth, YPD broth
Experimental: as §1, §2, §3
(*) When testing Candida albicans, Yeast extract Peptone Dextrose (YPD) broth is being used.
(**) For Candida albicans it is equal to 1×10^7
Different concentrations of PDEA were also prepared in Yeast extract Peptone Dextrose (YPD) broth. Candida albicans were inoculated to a concentration of 20 000 CFU/ml and incubated at 37° C. for 24 hours. Readouts were “Clear” and “Foggy”.
Different concentrations of the quaternary ammonium PDEA (Example 2) were also prepared in Yeast extract Peptone Dextrose (YPD) broth. Candida albicans were inoculated to a concentration of 20 000 CFU/ml and incubated at 37° C. for 24 hours. Readouts were “Clear” and “Foggy”.
Different concentrations of the Para position-PDEA” is (S)-4-pyridylthio cysteamine were also prepared in Yeast extract Peptone Dextrose (YPD) broth. Candida albicans were inoculated to a concentration of 20 000 CFU/ml and incubated at 37° C. for 24 hours. Readouts were “Clear” and “Foggy”.
Different concentrations of “Carboxylic acid PDEA” is 3-(2-Pyridyldithio)propanoic acid (CAS: 68617-64-1) were also prepared in Yeast extract Peptone Dextrose (YPD) broth. Candida albicans were inoculated to a concentration of 20 000 CFU/ml and incubated at 37° C. for 24 hours. Readouts were “Clear” and “Foggy”.

S. aureus = test: Combination therapy: Gentamycin with PDEA, visible growth; details: No PDEA
Experimental: (§8) Different concentrations of Gentamycin in Mueller Hinton were prepared in 3 different concentrations of PDEA. E. coli and S. aureus were inoculated (10^5) and were incubated O/N.
(§9) Readouts were “Clear” and “Foggy”.

E. coli = test: as above; details: No PDEA
Experimental: as §8, §9

What does the source list for O=C(O)CCSSc1ccccn1 [Example 4, 3-(2-Pyridyldithio)propanoic acid]?
visible growth readout ([1]; 0.05 mM): Foggy; visible growth readout ([1]; 0.1 mM): Foggy; visible growth readout ([1]; 0.25 mM): Clear; visible growth readout ([1]; 0.5 mM): Clear; visible growth readout ([1]; 1 mM): Clear; visible growth readout ([1]; 2 mM): Clear; visible growth readout ([1]; 4 mM): Clear; MIC ([1]; Staphylococcus epidermidis, Mueller Hinton, 20 000 CFU/ml, 37° C., 24 hours, read-out: MIC): 100 to 250 µM (≈ 21.5 to 53.8 µg/mL); visible growth readout ([2]; 0.05 mM): Foggy; visible growth readout ([2]; 0.1 mM): Foggy; visible growth readout ([2]; 0.25 mM): Clear; visible growth readout ([2]; 0.5 mM): Clear; visible growth readout ([2]; 1 mM): Clear; visible growth readout ([2]; 2 mM): Clear; visible growth readout ([2]; 4 mM): Clear; MIC ([2]; Enterococcus faecium, Mueller Hinton, 20 000 CFU/ml, 37° C., 24 hours, read-out: MIC): 100 to 250 µM (≈ 21.5 to 53.8 µg/mL); visible growth readout ([3]; 0.05 mM): Foggy; visible growth readout ([3]; 0.1 mM): Foggy; visible growth readout ([3]; 0.25 mM): Foggy; visible growth readout ([3]; 0.5 mM): Foggy; visible growth readout ([3]; 0.8 mM (second series)): Foggy; visible growth readout ([3]; 1 mM): Foggy; visible growth readout ([3]; 2 mM): Foggy; visible growth readout ([3]; 3.2 mM (second series)): Foggy; visible growth readout ([3]; 4 mM): Foggy; visible growth readout ([3]; 6.4 mM (second series)): Clear; visible growth readout ([3]; 12.8 mM (second series)): Clear; visible growth readout ([3]; 0.1.6 mM (second series)): Foggy; MIC ([3]; Klebsiella pneumoniae, AO15200, Mueller Hinton, 20 000 CFU/ml, 37° C., 24 hours, read-out: MIC): 3200 to 6400 µM (≈ 689 to 1380 µg/mL); visible growth readout (Escherichia coli CFT073; 0.05 mM): Foggy; visible growth readout (Escherichia coli CFT073; 0.1 mM): Foggy; visible growth readout (Escherichia coli CFT073; 0.25 mM): Foggy; visible growth readout (Escherichia coli CFT073; 0.5 mM): Foggy; visible growth readout (Escherichia coli CFT073; 1 mM): Foggy; visible growth readout (Escherichia coli CFT073; 2 mM): Foggy; visible growth readout (Escherichia coli CFT073; 4 mM): Clear; MIC (Escherichia coli CFT073; Escherichia coli, CFT073, Mueller Hinton, 20 000 CFU/ml, 37° C., 24 hours, read-out: MIC): 2000 to 4000 µM (≈ 431 to 861 µg/mL); visible growth readout ([4]; 0.05 mM): Foggy; visible growth readout ([4]; 0.1 mM): Foggy; visible growth readout ([4]; 0.25 mM): Foggy; visible growth readout ([4]; 0.5 mM): Foggy; visible growth readout ([4]; 0.8 mM (second series)): Foggy; visible growth readout ([4]; 1 mM): Foggy; visible growth readout ([4]; 2 mM): Foggy; visible growth readout ([4]; 3.2 mM (second series)): Foggy; visible growth readout ([4]; 4 mM): Foggy; visible growth readout ([4]; 6.4 mM (second series)): Foggy; visible growth readout ([4]; 12.8 mM (second series)): Clear; visible growth readout ([4]; 0.1.6 mM (second series)): Foggy; MIC ([4]; Pseudomonas aeruginosa, PA02, Mueller Hinton, 20 000 CFU/ml, 37° C., 24 hours, read-out: MIC): 6400 to 12800 µM (≈ 1380 to 2760 µg/mL); visible growth readout ([5]; 0.05 mM): Foggy; visible growth readout ([5]; 0.1 mM): Foggy; visible growth readout ([5]; 0.25 mM): Foggy; visible growth readout ([5]; 0.5 mM): Foggy; visible growth readout ([5]; 1 mM): Clear; visible growth readout ([5]; 2 mM): Clear; visible growth readout ([5]; 4 mM): Clear; visible growth readout ([6]; 0.05 mM): Foggy; visible growth readout ([6]; 0.1 mM): Foggy; visible growth readout ([6]; 0.25 mM): Foggy; visible growth readout ([6]; 0.5 mM): Clear; visible growth readout ([6]; 1 mM): Clear; visible growth readout ([6]; 2 mM): Clear; visible growth readout ([6]; 4 mM): Clear; MIC ([6]; Enterococcus faecalis, Mueller Hinton, 20 000 CFU/ml, 37° C., 24 hours, read-out: MIC): 250 to 500 µM (≈ 53.8 to 108 µg/mL); visible growth readout (Candida albicans; 0.05 mM): Foggy; visible growth readout (Candida albicans; 0.1 mM): Foggy; visible growth readout (Candida albicans; 0.25 mM): Foggy; visible growth readout (Candida albicans; 0.5 mM): Foggy; visible growth readout (Candida albicans; 1 mM): Foggy; visible growth readout (Candida albicans; 2 mM): Clear; visible growth readout (Candida albicans; 4 mM): Clear; MIC (Candida albicans; Candida albicans, YPD broth, 20 000 CFU/ml, 37° C., 24 hours, read-out: MIC): 1000 to 2000 µM (≈ 215 to 431 µg/mL)

Which “Visible growth readout (Clear/Foggy)” value (S. aureus; Gentamycin 0.0156 μg/ml) does the source give for Gentamycin here?
Its value is “Foggy”.

And the “Visible growth readout (Clear/Foggy)” value (S. aureus; Gentamycin 0.03125 μg/ml)?
Its value is “Foggy”.

And the “Visible growth readout (Clear/Foggy)” value (S. aureus; Gentamycin 0.0625 μg/ml)?
The value was “Foggy”.

And the “Visible growth readout (Clear/Foggy)” value (S. aureus; Gentamycin 0.125 μg/ml)?
The value was “Foggy”.

And the “Visible growth readout (Clear/Foggy)” value (S. aureus; Gentamycin 0.25 μg/ml)?
Its value is “Clear”.

What about the “Visible growth readout (Clear/Foggy)” value (S. aureus; Gentamycin 0.5 μg/ml) of the same molecule?
The value was “Clear”.

What about the “Visible growth readout (Clear/Foggy)” value (S. aureus; Gentamycin 1 μg/ml) of the same molecule?
Its value is “Clear”.

What about the “Visible growth readout (Clear/Foggy)” value (S. aureus; Gentamycin 2 μg/ml) of the same molecule?
Its value is “Clear”.

What about the “Visible growth readout (Clear/Foggy)” value (S. aureus; Gentamycin 4 μg/ml) of the same molecule?
The value was “Clear”.

And the “Visible growth readout (Clear/Foggy)” value (S. aureus; Gentamycin 8 μg/ml)?
Its value is “Clear”.

And the “Visible growth readout (Clear/Foggy)” value (S. aureus; Gentamycin 16 μg/ml)?
Its value is “Clear”.

What about the “Visible growth readout (Clear/Foggy)” value (S. aureus; Gentamycin 32 μg/ml) of the same molecule?
The value was “Clear”.

What about the “Visible growth readout (Clear/Foggy)” value (S. aureus; Gentamycin 64 μg/ml) of the same molecule?
Its value is “Clear”.

And the “Visible growth readout (Clear/Foggy)” value (S. aureus; Gentamycin 128 μg/ml)?
Its value is “Clear”.

What about the “Visible growth readout (Clear/Foggy)” value (S. aureus; Gentamycin 256 μg/ml) of the same molecule?
Its value is “Clear”.

What about the “Visible growth readout (Clear/Foggy)” value (E. coli; Gentamycin 0.0156 μg/ml) of the same molecule?
Its value is “Foggy”.

What about the “Visible growth readout (Clear/Foggy)” value (E. coli; Gentamycin 0.03125 μg/ml) of the same molecule?
The value was “Foggy”.

What about the “Visible growth readout (Clear/Foggy)” value (E. coli; Gentamycin 0.0625 μg/ml) of the same molecule?
Its value is “Foggy”.

What about the “Visible growth readout (Clear/Foggy)” value (E. coli; Gentamycin 0.125 μg/ml) of the same molecule?
Its value is “Foggy”.

What about the “Visible growth readout (Clear/Foggy)” value (E. coli; Gentamycin 0.25 μg/ml) of the same molecule?
The value was “Foggy”.

And the “Visible growth readout (Clear/Foggy)” value (E. coli; Gentamycin 0.5 μg/ml)?
Its value is “Foggy”.

And the “Visible growth readout (Clear/Foggy)” value (E. coli; Gentamycin 1 μg/ml)?
Its value is “Clear”.

What about the “Visible growth readout (Clear/Foggy)” value (E. coli; Gentamycin 2 μg/ml) of the same molecule?
Its value is “Clear”.

And the “Visible growth readout (Clear/Foggy)” value (E. coli; Gentamycin 4 μg/ml)?
The value was “Clear”.

What about the “Visible growth readout (Clear/Foggy)” value (E. coli; Gentamycin 8 μg/ml) of the same molecule?
Its value is “Clear”.

And the “Visible growth readout (Clear/Foggy)” value (E. coli; Gentamycin 16 μg/ml)?
Its value is “Clear”.

What about the “Visible growth readout (Clear/Foggy)” value (E. coli; Gentamycin 32 μg/ml) of the same molecule?
The value was “Clear”.

And the “Visible growth readout (Clear/Foggy)” value (E. coli; Gentamycin 64 μg/ml)?
The value was “Clear”.

What about the “Visible growth readout (Clear/Foggy)” value (E. coli; Gentamycin 128 μg/ml) of the same molecule?
Its value is “Clear”.

And the “Visible growth readout (Clear/Foggy)” value (E. coli; Gentamycin 256 μg/ml)?
Its value is “Clear”.
